From ChEMBL document CHEMBL2331539, “A comparative protease stability study of synthetic macrocyclic peptides that mimic two endocrine hormones” (Bioorg Med Chem Lett, 2013)
Square brackets hold non-standard residues; d marks the D form. Peptide text beside a SMILES is read from it. Dap = NC[C@H](N)C(=O)O

Key:
[1] = target: Vasopressin V2 receptor (Homo sapiens, UniProt P30518); assay: Binding affinity to vasopression V2 receptor (unknown origin) on isolated cell membrane by vasopression competition binding assay
Vasopressin V2 receptor, sequence (P30518 whole entry): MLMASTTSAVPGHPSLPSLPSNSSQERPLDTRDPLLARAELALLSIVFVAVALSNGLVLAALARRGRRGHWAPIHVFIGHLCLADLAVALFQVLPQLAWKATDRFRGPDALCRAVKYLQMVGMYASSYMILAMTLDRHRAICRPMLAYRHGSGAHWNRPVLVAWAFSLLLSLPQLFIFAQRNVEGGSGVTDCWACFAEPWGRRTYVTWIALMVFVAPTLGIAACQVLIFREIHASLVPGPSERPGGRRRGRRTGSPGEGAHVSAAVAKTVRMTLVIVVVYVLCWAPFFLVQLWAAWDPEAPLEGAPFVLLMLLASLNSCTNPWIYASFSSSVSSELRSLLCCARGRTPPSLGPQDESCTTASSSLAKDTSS

[2] = Stability of the compound in presence of pronase (unknown origin) assessed as degradation measured after 360 mins by HPLC analysis; format: ADME; settings: read-out: Drug degradation
[3] = Stability of the compound in presence of pronase (unknown origin) assessed as degradation measured after 120 mins by HPLC analysis; format: ADME; settings: read-out: Drug degradation
[4] = Stability of the compound in presence of pronase (unknown origin) assessed as degradation measured after 60 mins by HPLC analysis; format: ADME; settings: read-out: Drug degradation
[5] = Stability of the compound in presence of alpha-chymotrypsin (unknown origin) assessed as degradation measured after 360 mins by HPLC analysis; format: ADME, Homo sapiens; settings: read-out: Drug degradation
[6] = Stability of the compound in presence of alpha-chymotrypsin (unknown origin) assessed as degradation measured after 120 mins by HPLC analysis; format: ADME, Homo sapiens; settings: read-out: Drug degradation
[7] = Stability of the compound in presence of alpha-chymotrypsin (unknown origin) assessed as degradation measured after 60 mins by HPLC analysis; format: ADME, Homo sapiens; settings: read-out: Drug degradation
[8] = Stability of the compound in presence of pepsin (unknown origin) assessed as degradation measured after 360 mins by HPLC analysis; format: ADME, Homo sapiens; settings: read-out: Drug degradation
[9] = Stability of the compound in presence of pepsin (unknown origin) assessed as degradation measured after 120 mins by HPLC analysis; format: ADME, Homo sapiens; settings: read-out: Drug degradation
[10] = Stability of the compound in presence of pepsin (unknown origin) assessed as degradation measured after 60 mins by HPLC analysis; format: ADME, Homo sapiens; settings: read-out: Drug degradation

Row | SMILES | IC50 [1] [µM] | metabolised at 6 h [2] [%] | metabolised at 2 h [3] [%] | metabolised at 1 h [4] [%] | metabolised at 6 h [5] [%] | metabolised at 2 h [6] [%] | metabolised at 1 h [7] [%] | metabolised at 6 h [8] [%] | metabolised at 2 h [9] [%] | metabolised at 1 h [10] [%]
1 | CC[C@H](C)[C@@H]1NC(=O)[C@H](Cc2ccc(O)cc2)NC(=O)[C@@H](N)CSSC[C@@H](C(=O)N2CCC[C@H]2C(=O)N[C@@H](CC(C)C)C(=O)NCC(N)=O)NC(=O)[C@H](CC(N)=O)NC(=O)[C@H](CCC(N)=O)NC1=O [OXYTOCIN] | – | 100 | 96.8 | 69.6 | 74.6 | 43.2 | 25.1 | – | – | –
2 | NC(=O)CC[C@@H]1NC(=O)[C@H](Cc2ccccc2)NC(=O)[C@H](Cc2ccc(O)cc2)NC(=O)[C@@H](N)CSSC[C@@H](C(=O)N2CCC[C@H]2C(=O)N[C@@H](CCCN=C(N)N)C(=O)NCC(N)=O)NC(=O)[C@H](CC(N)=O)NC1=O [VASOPRESSIN] | – | 48.2 | 15.9 | 4.4 | 46.1 | 32.1 | 18.7 | 80.1 | 78.6 | 79.8

More lines, now with the values ahead:

Row | IC50 [1] [µM] | metabolised at 6 h [2] [%] | metabolised at 2 h [3] [%] | metabolised at 1 h [4] [%] | metabolised at 6 h [5] [%] | metabolised at 2 h [6] [%] | metabolised at 1 h [7] [%] | metabolised at 6 h [8] [%] | metabolised at 2 h [9] [%] | metabolised at 1 h [10] [%] | SMILES
3 | 2 | 64.2 | 50.2 | 27.9 | 24.7 | 1.49 | -0.98 | 5.23 | 10.2 | 5.39 | NC(=O)CC[C@@H]1NC(=O)[C@H](Cc2ccccc2)NC(=O)[C@H](Cc2ccc(O)cc2)NC(=O)[C@H](Cc2ccc(O)cc2)NC(=O)CNC(=O)[C@H](CC(N)=O)NC1=O (cyclo(FQNGYY))
4 | 10.2 | 0.882 | 0.323 | -2.07 | 20.3 | 7.08 | 6.62 | 2.08 | 3.52 | 0.716 | NC[C@@H]1NC(=O)CNC(=O)[C@H](CC(N)=O)NC(=O)[C@H](CCC(N)=O)NC(=O)[C@H](Cc2ccccc2)NC(=O)[C@H](Cc2ccc(O)cc2)NC1=O (cyclo([Dap]YFQNG))
5 | – | 6.2 | 2.99 | 11.5 | 0.0955 | 0 | 0.136 | 4.66 | -0.41 | 2.34 | CC[C@H](C)[C@@H]1NC(=O)[C@H](Cc2ccc(O)cc2)NC(=O)[C@H](CN)NC(=O)CNC(=O)[C@H](CC(N)=O)NC(=O)[C@H](CCC(N)=O)NC1=O (cyclo([Dap]YIQNG))
